Data from patent US20110151484A1, “hERG MUTANTS AND USES THEREOF” (priority 2008, published 2011).
Where two headings read alike, the source gives them in different places.

What was measured:
[1] = biological target: WT-hERG (Homo sapiens, UniProt Q12809)
Description: (§1) CHO cells were cultured in D-ME/F12 with 10% FBS and maintained at 37° C. in 5% CO2. Cells were studied at least 24 h after being plated on microscope coverslips. Mutant hERG constructs were generated using the Megaprimer PCR method. […] Blank CHO cells were plated onto sterilised glass coverslips. After 24 h, the cells were transfected with mutant hERG constructs using PolyFect Transfection Reagent (Qiagen) according to the manufacturer's instructions. After transfection, the cells were incubated at 37° C. for a minimum of 1 day prior to electrophysiological study. Successfully transfected cells, identified by the expression of eGFP, were studied using the whole-cell configuration of the patch clamp technique.
(§2) Borosilicate glass tubing patch pipettes, with resistances of 1-4 MΩ when filled with internal solution, were made using a vertical 2-stage puller (PP-830; Narishige, Japan). The internal solution contained (in mM) 120 potassium gluconate, 20 KCl, 1.5 MgATP, 5 EGTA and 10 HEPES (pH 7.3 with KOH). […] Currents were amplified (Axopatch 200B amplifier; Molecular Devices, Sunnyvale, Calif.) and digitised (DigiData 1200; Molecular Devices) before storage on a personal computer. Capacitance current transients were electronically subtracted, and series resistance compensation was ˜80% for all experiments. Current signals were digitised at 5 kHz and low-pass filtered at 2 KHz. Some current traces were leak-subtracted off-line. Acquisition was performed using pClamp software.
(§3) Currents were measured with a two-step voltage protocol; a first step to +20 mV for 3 seconds to fully activate the channels and a second step to a negative membrane potential, usually −110 mV (but see below for variations). During this second voltage step hERG channels quickly recover from inactivation and proceed to deactivate.
(§4) Drug block was calculated as I[drug]/Icontrol, with all currents measured at the end of the activating step. […] In this way current was measured at the same time point for all cells.
(§5) Voltage-protocols were repeated at 0.1 Hz. Control currents were recorded 3-5 minutes after patch rupture, i.e. the time take for current levels to stabilise at a steady state level. […] Recording continued until a new steady state block was reached (typically 2-4 minutes). Between 2 and 4 doses of drug were applied to each cell with most experiments completed within 20 minutes.
(§6) Initial data analysis was performed using the Clampfit module of the pClamp 9.0 software. Subsequent data analysis and preparation of data for figures were performed with Mathematica 6 (Wolfram Technologies). All data are expressed as mean ±SEM (n) and statistical significance (P<0.05) was determined using paired t-tests.

[2] = biological target: N588E-hERG (Homo sapiens, UniProt Q12809, N588E)
Description: as §1, §2, §3, §4, §5, §6

[3] = biological target: N588K-hERG (Homo sapiens, UniProt Q12809, N588K)
Description: Currents were measured with a two-step voltage protocol; a first step to +20 mV for 3 seconds to fully activate the channels and a second step to a negative membrane potential, usually −110 mV (but see below for variations). […]

Row | Structure (SMILES) | h (Hill plot), WT-hERG ([1]; human) | h (Hill plot), N588E ([2]; human) | IC50 [3] [µM] | IC50 [1] [µM] | h (Hill plot), WT-hERG [1] | IC50 [2] [µM] | h (Hill plot), N588E [2]
1 | C1CCC(C(CC2CCCCN2)C2CCCCC2)CC1 (stereo not drawn) [Perhexiline] | h = 1.1 | h = 0.8 |  |  |  |  | 
2 | CC(C)NCC(O)c1ccc(NS(C)(=O)=O)cc1 (racemic) [dl-Sotalol] |  |  | 1390 ± 266 | 516 ± 35.5 | h = 0.9 | 586 ± 179 | h = 0.8
3 | COc1cc(N)c(Cl)cc1C(=O)NC1CCN(CCCOc2ccc(F)cc2)CC1OC (stereo not drawn) [Cisapride] | h = 1.0 | h = 0.8 |  |  |  |  | 
